In article PMC7326275 (PLoS Pathogens, 2020):
Marks after values point to notes of the source that are not given here.

Key:
[1] = system: H3N2 (E119V) virus (A/Fukui/45/2004); set-up: species or system ferret; AUC (total area under the viral shedding curve, raw data): unit not given beside the values; conditions: in vivo
[2] = system: H1N1 (H275Y) virus (A/Mississippi/3/2001 clone); set-up: species or system ferret; AUC (total area under the viral shedding curve, raw data): unit not given beside the values; conditions: in vivo
[3] = system: H1N1pdm09 (H275Y) virus; set-up: species or system Cynomolgus macaques (Macaca fascicularis); conditions: cynomolgus monkey, in vivo
[4] = system: H1N1pdm09 (H275Y) virus (A/Perth/261/2009); set-up: species or system ferret; AUC (total area under the viral shedding curve, raw data): unit not given beside the values; conditions: in vivo
[5] = system: B (H273Y) virus (B/Perth/265/2015); set-up: species or system ferret; AUC (total area under the viral shedding curve, raw data): unit not given beside the values; conditions: in vivo
[6] = system: B (D197N) virus (B/Singapore/GP702/2015); set-up: species or system ferret; AUC (total area under the viral shedding curve, raw data): unit not given beside the values; conditions: in vivo

SMILES: CCOC(=O)C1=C[C@@H](OC(CC)CC)[C@H](NC(C)=O)[C@@H](N)C1 [OST, oseltamivir]
- % Ferrets Infected [1]: 62 (5/8) %
- AUC (total area under the viral shedding curve, raw data) [1]: 6.0 ± 7.7
- Activity loss clinical score [1]: 0 (key: ≤20; 21–40; 2: 41–60; 3: >60)
- Duration of Shedding [1]: 3.8 ± 0.5 days
- Nasal inflammation Cell score [1]: 0 (key: <1X10^6; 1 to 2 x10^6; 2.1 to 4 x10^6; 3: >4x10^6)
- Nasal inflammation Protein score [1]: 0 (key: <500; 500–1000; 2: 1001–1500; 3: >1500)
- Peak Viral Titre [1]: 4.8 ± 0.4 Log10 TCID50/ml
- Temperature clinical score [1]: 0 (key: 0: <1; 1.1–1.5; 1.5–2.0; 3: >2.0)
- Total Score (clinical signs) [1]: 0
- Weight loss clinical score [1]: 0
- % Ferrets Infected [2]: 100 (4/4) %
- AUC (total area under the viral shedding curve, raw data) [2]: 18.2 ± 4.3
- Activity loss clinical score [2]: 3 (key: ≤20; 21–40; 2: 41–60; 3: >60)
- Duration of Shedding [2]: 5.2 ± 1.25 days
- Nasal inflammation Cell score [2]: 1 (key: <1X10^6; 1 to 2 x10^6; 2.1 to 4 x10^6; 3: >4x10^6)
- Nasal inflammation Protein score [2]: 0 (key: <500; 500–1000; 2: 1001–1500; 3: >1500)
- Peak Viral Titre [2]: 4.6± 0.5 Log10 TCID50/ml
- Temperature clinical score [2]: 2 (key: 0: <1; 1.1–1.5; 1.5–2.0; 3: >2.0)
- Total Score (clinical signs) [2]: 7
- Weight loss clinical score [2]: 1 (key: 0: Weight increase or no change; 1–3; 2: 3–6; 3: >6)
- body weight or temperature, OST- vs placebo-treated animals [3]: no significant differences
- lower viral titre in tracheal lavages of OST dosed macaques on Day 3 [3]: not observed
- viral titres in nasal wash and tracheal lavages, OST vs placebo [3]: not significantly different
- % Ferrets Infected [4]: 100 (4/4) %
- AUC (total area under the viral shedding curve, raw data) [4]: 23.4 ± 4.4
- Activity loss clinical score [4]: 3 (key: ≤20; 21–40; 2: 41–60; 3: >60)
- Duration of Shedding [4]: 6.0 ± 1.4 days
- Nasal inflammation Cell score [4]: 3 (key: <1X10^6; 1 to 2 x10^6; 2.1 to 4 x10^6; 3: >4x10^6)
- Nasal inflammation Protein score [4]: 3 (key: <500; 500–1000; 2: 1001–1500; 3: >1500)
- Peak Viral Titre [4]: 5.2 ± 0.6 Log10 TCID50/ml
- Temperature clinical score [4]: 3 (key: 0: <1; 1.1–1.5; 1.5–2.0; 3: >2.0)
- Total Score (clinical signs) [4]: 15
- Weight loss clinical score [4]: 3 (key: 0: Weight increase or no change; 1–3; 2: 3–6; 3: >6)
- % Ferrets Infected [5]: 100 (4/4) %
- AUC (total area under the viral shedding curve, raw data) [5]: 13.5 ± 1.0
- Activity loss clinical score [5]: 1 (key: ≤20; 21–40; 2: 41–60; 3: >60)
- Duration of Shedding [5]: 5.2 ± 0.5 days
- Nasal inflammation Cell score [5]: 0 (key: <1X10^6; 1 to 2 x10^6; 2.1 to 4 x10^6; 3: >4x10^6)
- Nasal inflammation Protein score [5]: 0 (key: <500; 500–1000; 2: 1001–1500; 3: >1500)
- Peak Viral Titre [5]: 3.8 ± 0.6 Log10 TCID50/ml
- Temperature clinical score [5]: 0 (key: 0: <1; 1.1–1.5; 1.5–2.0; 3: >2.0)
- Total Score (clinical signs) [5]: 1
- Weight loss clinical score [5]: 0
- % Ferrets Infected [6]: 100 (4/4) %
- AUC (total area under the viral shedding curve, raw data) [6]: 12.6 ± 2.3
- Activity loss clinical score [6]: 1 (key: ≤20; 21–40; 2: 41–60; 3: >60)
- Duration of Shedding [6]: 4.2 ± 1.0 days
- Nasal inflammation Cell score [6]: 0 (key: <1X10^6; 1 to 2 x10^6; 2.1 to 4 x10^6; 3: >4x10^6)
- Nasal inflammation Protein score [6]: 0 (key: <500; 500–1000; 2: 1001–1500; 3: >1500)
- Peak Viral Titre [6]: 4.5 ± 0.5 Log10 TCID50/ml
- Temperature clinical score [6]: 0 (key: 0: <1; 1.1–1.5; 1.5–2.0; 3: >2.0)
- Total Score (clinical signs) [6]: 1
- Weight loss clinical score [6]: 0
- viral titre on the single day with significant difference to placebo [6]: 4.1 ± 0.4 Log10 TCID50/ml
